For this assay, the system named is Acinetobacter baumannii ATCC17978. Briefly: Minimal Inhibitory Concentration (MIC) assay. In kind it is cell-based. As to conditions: Acinetobacter baumannii, ATCC17978, 20 h, read-out: ATCC 17978 MIC. The procedure: Minimal Inhibitory Concentration Protocol (MIC) Assay:
Table 2 provides the in vitro potency of the compounds of present invention obtained against the strain Acinetobacter baumannii ATCC17978, which was assessed by an MIC (Minimal Inhibitory Concentration) assay as follows.
Test compounds were prepared from 10 mM DMSO stock solutions. The top dose was diluted from 10 mM to 2.5 mM by DMSO, followed by serial 2-fold 11 points dilutions in DMSO in a master plate (Greiner, Cat No: 651201). 2 μL compounds were transferred from the master plate into a new 96-well assay plate (Costar, 3599).
The growth medium […] Mueller Hinton Broth (CAMHB) was prepared by adding 22 g powder (BD, 212322) in 1 L purified water, autoclaved, and supplemented with sterilized CaCl2) (20 mg per liter) and MgCl2 (10 mg per liter).
Vials of each of the test microorganisms were maintained frozen in the vapor phase of a liquid nitrogen freezer. Took out the bacterial strain ATCC 17978 from liquid nitrogen freezer, thawed it at room temperature, and diluted the bacterial in the CAMHB medium to achieve a final inoculum of 2×10^5 CFU/mL. 98 μL of the adjusted bacteria suspension was dispensed to the assay plate and pipetted 5 times.
Then the assay plates were incubated for 20 hours at 35±2° C. in ambient air with humidity. Following incubation, MIC (μg/mL) value, the lowest concentration of drug that inhibits visible growth of the microorganism, was recorded by visual judgment of bacterial growth through magnification mirror of MIC reader, and the assay plates were photographed with Qcount system as image raw data. Meanwhile, the OD600 of assay plates was recorded with SpectraMax Plus384 as OD raw data.

In general, MIC refers to the lowest concentration found to suppress growth.

≈ marks a conversion by molar mass, not a printed value.

As for `CNc1ccc(-n2cc(-c3cnc(C(=O)Nc4ccc(C(=O)N5CCN(C(=O)C6CCNCC6)CC5)c(Cl)c4)n3C)c(C(F)(F)F)n2)nc1` [Example D1, N-[3-chloro-4-[4-(piperidine-4-carbonyl)piperazine-1-carbonyl]phenyl]-1-methyl-5-[1-[5-(methylamino)-2-pyridyl]-3-(trifluoromethyl)pyrazol-4-yl]imidazole-2-carboxamide], the MIC stood at 0.55 µg/mL (≈ 0.787 µM).

These data come from patent US12679824B2 (Hoffmann-La Roche Inc., priority 2020, dated 2026).
